Active and inactive are the calls of the source. No cut-off for these calls is given here. Peptide text beside a SMILES is read from it. * marks the point of attachment. CH2F = FC*
Legend:
[1] = Inhibition of DPAP1 assessed as blocking of release of beta-naphthylamine from Ala-Pro-Ala-betaNA substrate at 1 uM
[2] = Inhibition of DPAP1 assessed as blocking of release of beta-naphthylamine from Ala-Pro-Ala-betaNA substrate at 1 uM in presence of recombinant Plasmodium falciparum aminopeptidase P
[3] = test system: Plasmodium falciparum; test: Antimalarial activity as inhibition of Plasmodium falciparum 3D7 replication in medium + isoleucine after 65 hrs; format: functional, organism-based; conditions: 3D7, 65 h
[4] = test system: Plasmodium falciparum; test: Antimalarial activity as inhibition of Plasmodium falciparum 3D7 replication in medium with all amino acids after 65 hrs; format: functional, organism-based; conditions: 3D7, 65 h
[5] = test system: Plasmodium falciparum; test: Antimalarial activity as DNA content of ring stage Plasmodium falciparum 3D7 in medium + isoleucine by flow cytometry; format: functional, organism-based
[6] = test system: Plasmodium falciparum; test: Antimalarial activity as DNA content of ring stage Plasmodium falciparum 3D7 in medium with all amino acids by flow cytometry; format: functional, organism-based
[7] = test system: Plasmodium falciparum; test: Inhibition of aminopeptidase N in Plasmodium falciparum food vacuole extract

Activity [1] | Activity [2] | EC50 [3] | EC50 [4] | Activity [7] | SMILES | Activity [5] | Activity [6]
inactive |  |  |  |  | CC(C)CC(=O)N[C@H](C(=O)N[C@H](C(=O)N[C@@H](CC(C)C)[C@@H](O)CC(=O)N[C@@H](C)C(=O)N[C@@H](CC(C)C)[C@@H](O)CC(=O)O)C(C)C)C(C)C |  | 
inactive | inactive |  |  |  | CC(C)C[C@H](NC(=O)[C@H]1O[C@@H]1C(=O)O)C(=O)NCCCCN=C(N)N |  | 
Active | Active |  |  |  | N=C(N)NCCC[C@H](NC(=O)[C@@H]1CCCN1)C(=O)CF (H-Pro-Arg-CH2F) |  | 
inactive | inactive | 0.9 µM | 1.8 µM | Active | CC(C)C[C@H](NC(=O)[C@@H](O)[C@H](N)Cc1ccccc1)C(=O)O [UBENIMEX] | Active | Active
